We go through 28 compounds from patent publication US20100256357A1, “HETEROCYCLES USEFUL AS INHIBITORS OF CARBONIC ANHYDRASE” (Agouron Pharmaceuticals, Inc., priority 2006, published 2010).

SMILES strings stand for the structures. pIC50, pKd: −log10 of the molar value. Read-outs that look alike come from different tables or passages of the source.

The target in one experiment is T1, human CA-IV (Homo sapiens, UniProt P22748).
T1 construct: made in house; host or cells: Escherichia coli BL21(DE3)
T1 sequence (P22748 19-284 limits assumed): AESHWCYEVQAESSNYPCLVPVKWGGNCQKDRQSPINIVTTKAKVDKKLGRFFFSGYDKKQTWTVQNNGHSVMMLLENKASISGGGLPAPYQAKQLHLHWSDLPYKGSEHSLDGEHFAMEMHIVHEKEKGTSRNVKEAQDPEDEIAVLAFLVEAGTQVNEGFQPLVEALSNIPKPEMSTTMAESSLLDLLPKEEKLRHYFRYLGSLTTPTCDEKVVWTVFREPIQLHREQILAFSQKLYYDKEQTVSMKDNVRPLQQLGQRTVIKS
The experiment is described as follows: Carbonic Anhydrase-IV (CA-IV) Fluorescence Polarization Assay-IC50 Determination. It is filed as binding. The note with it: for inhibition at 0.2 µM: read-out: CA-IV: % Inh @ Min dose; for pIC50: read-out: CA-IV IC50. The procedure, abridged: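 Recombinant CA-IV expressed with 800 uM ZnCl2, purified by SP-Sepharose and Sephacryl S-100 in 25 mM Tris-HCl pH 7.0, 100 mM NaCl, concentrated to 7.0 mg/mL. IC50 by fluorescence polarization.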
For orientation: Polarisation of emitted light reports the rotation of a fluorescent probe.

Experiment [1] deals with T2, human CA-II (Homo sapiens, UniProt P00918).
T2 construct: purchased Sigma-Aldrich C6165
The experiment is described as follows: Carbonic Anhydrase-II (CA-II) Fluorescence Polarization Tight Binding Assay-Kd Determination. To be noted: for pKd: read-out: CA-II Kd; for inhibition at 0.0025 µM: inhibitor concentration 2.5 nM. The procedure:
Assays were conducted in a final volume of 100 μL in 50 mM Tris/HCl (pH 7.6), 100 mM Na2SO4 and 0.005% Tween-20 in a 96-well black assay plate. […] The assay plate was
The Kd binding was calculated using GraphPad Prism and Morrison tight binding ligand equation.

The target in experiment [2] is T2, human CA-II. The experiment is described as follows: Carbonic Anhydrase-II (CA-II) Fluorimetric Assay-IC50 Determination. The note with it: read-out: CAII % Inh @ Min dose; for inhibition at 0.01 µM: CA II Min dose 10 nM; for inhibition at 0.0025 µM: Min dose 2.5 nM. In kind it is biochemical. The procedure, abridged:
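Compounds were tested as an 11-point, 1:3 dilution series in duplicate, with a top final concentration of 1 μM, in 50 mM Tris/HCl pH 7.6, 100 mM Na2SO4 and 0.005% Tween-20. Human CA-II activity was followed as the rate of fluorescein diacetate hydrolysis at 25° C, with excitation at 488 nm and emission at 538 nm.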

The term pIC50 denotes −log10 of the IC50, conventionally taken in molar units. The pKd is the negative decadic logarithm of the Kd, by convention in mol/L. With `CC1(C)COCN1C(=O)c1nc(Cc2ccccc2)n(-c2ccc(S(N)(=O)=O)cc2)n1` [Example R-6, 4-(5-benzyl-3-[(44-dimethyl-13-oxazolidin-3-yl)carbonyl]-1H-124-triazol-1-yl)benzenesulfonamide], the inhibition at 0.2 µM at human CA-IV (CA-IV Min dose 200 nM) is 58.2%. Moreover, the negative-log IC50 (pIC50) at human CA-IV was 6.74. The pKd on human CA-II [1] was 9.49. Further, the inhibition at 0.01 µM at human CA-II [2] was 97%.
With `Cc1cc(Cn2cc(C(F)(F)F)nc2-c2ccc(S(N)(=O)=O)cc2)ccc1F` [JJJ-2, 4-[1-(4-fluoro-3-methylbenzyl)-4-(trifluoromethyl)-1H-imidazol-2-yl]benzenesulfonamide], the inhibition at 0.2 µM at human CA-IV (Min dose 200 nM) was determined as 45%. Further, on human CA-IV, the negative-log IC50 (pIC50) was 6.51. The pKd at human CA-II [1] is 9.26. The inhibition at 0.0025 µM on human CA-II [2] amounted to 37%.
For the compound `NS(=O)(=O)c1ccc(-n2nc(C(=O)N(CCO)Cc3ccccc3)nc2Cc2ccccc2)cc1` [Example R-2, 1-[4-(aminosulfonyl)phenyl]-N5-dibenzyl-N-(2-hydroxyethyl)-1H-124-triazole-3-carboxamide], at human CA-IV (CA-IV Min dose 200 nM), the inhibition at 0.2 µM amounted to 57.7%. Further, the pIC50 on human CA-IV is 7.06. At human CA-II [1], the pKd is 9.21. The inhibition at 0.01 µM on human CA-II [2] worked out at 87%.
With `Cc1ccc(C)c(Cn2cc(C(F)(F)F)nc2-c2ccc(S(N)(=O)=O)cc2)c1` [JJJ-1, 4-[1-(25-dimethylbenzyl)-4-(trifluoromethyl)-1H-imidazol-2-yl]benzenesulfonamide], on human CA-IV (Min dose 200 nM), the inhibition at 0.2 µM was determined as 56%. In addition, on human CA-IV, the negative logarithm of the IC50 (pIC50) is 6.89. Moreover, on human CA-II [1], the pKd was 9.22. Also, on human CA-II [2], the inhibition at 0.0025 µM was determined as 46%.
In the case of `NS(=O)(=O)c1ccc(-n2nc(CN[C@@H]3COC[C@@H]3C3CC3)nc2Cc2ccccc2)c(F)c1` [Example T-77, 4-[5-benzyl-3-({[(3S4R)-4-cyclopropyltetrahydrofuran-3-yl]amino}methyl)-1H-124-triazol-1-yl]-3-fluorobenzenesulfonamide], the inhibition at 0.0025 µM at human CA-II [1] amounted to 50%.
Same read-out and setting: the same measure for `COC[C@H]1CCC[C@H]1NCc1nc(Cc2ccccc2)n(-c2ccc(S(N)(=O)=O)cc2F)n1` [Example T-71, 4-[5-benzyl-3-({[(1R2S)-2-(methoxymethyl)cyclopentyl]amino}methyl)-1H-124-triazol-1-yl]-3-fluorobenzenesulfonamide]: 47%; for `Cc1cccc(CC(C)NCc2nc(Cc3ccccc3)n(-c3ccc(S(N)(=O)=O)cc3F)n2)n1` (stereo not shown) [Example T-78, 4-[5-benzyl-3-({[1-methyl-2-(6-methylpyridin-2-yl)ethyl]amino}methyl)-1H-124-triazol-1-yl]-3-fluorobenzenesulfonamide]: 71%.
At human CA-II [1], `NS(=O)(=O)c1ccc(-n2nc(CN[C@H](CO)Cc3ccccc3)nc2Cc2ccccc2)c(F)c1` [Example T-44, 4-[5-benzyl-3-({[(1S)-1-benzyl-2-hydroxyethyl]amino}methyl)-1H-124-triazol-1-yl]-3-fluorobenzenesulfonamide] registered an inhibition at 0.0025 µM of 49%.
On the same count and under the same terms, for `NS(=O)(=O)c1ccc(-n2nc(CNCc3ccccc3F)nc2Cc2ccccc2)c(F)c1` [Example T-74, 4-(5-benzyl-3-{[(2-fluorobenzyl)amino]methyl}-1H-124-triazol-1-yl)-3-fluorobenzenesulfonamide] the value was 45%; for `C[C@@H](NCc1nc(Cc2ccccc2)n(-c2ccc(S(N)(=O)=O)cc2F)n1)[C@@H](O)c1ccccc1` [Example T-43, 4-[5-benzyl-3-({[(1R2S)-2-hydroxy-1-methyl-2-phenylethyl]amino}methyl)-1H-124-triazol-1-yl]-3-fluorobenzenesulfonamide], 41%.
On the same count and under the same terms, the same measure for `NS(=O)(=O)c1ccc(-n2nc(CNCCc3ccccc3)nc2Cc2ccccc2)c(F)c1` [Example T-61, 4-(5-benzyl-3-{[(2-phenylethyl)amino]methyl}-1H-124-triazol-1-yl)-3-fluorobenzenesulfonamide]: 40%.
On human CA-II [1], `Cc1cccc(CCNCc2nc(Cc3ccccc3)n(-c3ccc(S(N)(=O)=O)cc3F)n2)c1` [Example T-66, 4-[5-benzyl-3-({[2-(3-methylphenyl)ethyl]amino}methyl)-1H-124-triazol-1-yl]-3-fluorobenzenesulfonamide] registered an inhibition at 0.0025 µM of 52%.
Same read-out and setting: the same measure for `NS(=O)(=O)c1ccc(-n2nc(CNCCc3ccccc3F)nc2Cc2ccccc2)c(F)c1` [Example T-58, 4-[5-benzyl-3-({[2-(2-fluorophenyl)ethyl]amino}methyl)-1H-124-triazol-1-yl]-3-fluorobenzenesulfonamide]: 51%.
Still for that read-out and setting: the same measure for `C[C@H](CNCc1nc(Cc2ccccc2)n(-c2ccc(S(N)(=O)=O)cc2F)n1)c1ccccc1` [Example T-52, 4-[5-benzyl-3-({[(2S)-2-phenylpropyl]amino}methyl)-1H-124-triazol-1-yl]-3-fluorobenzenesulfonamide]: 39%; for `NS(=O)(=O)c1ccc(-n2nc(CN[C@H]3CCCC[C@H]3O)nc2Cc2ccccc2)c(F)c1` [Example T-53, 4-[5-benzyl-3-({[(1S2R)-2-hydroxycyclohexyl]amino}methyl)-1H-124-triazol-1-yl]-3-fluorobenzenesulfonamide]: 75%.
In the case of `CCCN(C)Cc1nc(Cc2ccccc2)n(-c2ccc(S(N)(=O)=O)cc2F)n1` [Example T-42, 4-(5-benzyl-3-{[methyl(propyl)amino]methyl}-1H-124-triazol-1-yl)-3-fluorobenzenesulfonamide], the inhibition at 0.0025 µM on human CA-II [1] was determined as 42%.
The same measure, in the same setting: for `NS(=O)(=O)c1ccc(-n2nc(CNCC3(c4ccccc4)CC3)nc2Cc2ccccc2)c(F)c1` [Example T-45, 4-[5-benzyl-3-({[(1-phenylcyclopropyl)methyl]amino}methyl)-1H-124-triazol-1-yl]-3-fluorobenzenesulfonamide] the value was 53%; for `COc1cccc(CCNCc2nc(Cc3ccccc3)n(-c3ccc(S(N)(=O)=O)cc3F)n2)c1` [Example T-73, 4-[5-benzyl-3-({[2-(3-methoxyphenyl)ethyl]amino}methyl)-1H-124-triazol-1-yl]-3-fluorobenzenesulfonamide], 50%; for `C[C@@H]1COCCN1Cc1nc(Cc2ccccc2)n(-c2ccc(S(N)(=O)=O)cc2F)n1` [Example T-41, 4-(5-benzyl-3-{[(3R)-3-methylmorpholin-4-yl]methyl}-1H-124-triazol-1-yl)-3-fluorobenzenesulfonamide], 58%.
The same measure, in the same setting: for `NS(=O)(=O)c1ccc(-n2nc(CNCCOc3ccccc3F)nc2Cc2ccccc2)c(F)c1` [Example T-54] the value was 38%; for `NS(=O)(=O)c1ccc(-n2nc(CN[C@@H]3C[C@H]4CC[C@@H]3C4)nc2Cc2ccccc2)c(F)c1` [Example T-67], 47%.
Take `C[C@H](NCc1nc(Cc2ccccc2)n(-c2ccc(S(N)(=O)=O)cc2F)n1)[C@H](O)c1ccccc1` [Example T-50, 4-[5-benzyl-3-({[(1S2R)-2-hydroxy-1-methyl-2-phenylethyl]amino}methyl)-1H-124-triazol-1-yl]-3-fluorobenzenesulfonamide]: the inhibition at 0.0025 µM on human CA-II [1] is 63%.
On the same count and under the same terms, the same measure for `Cc1cc(CNCc2nc(Cc3ccccc3)n(-c3ccc(S(N)(=O)=O)cc3F)n2)ccc1F` [Example T-49, 4-(5-benzyl-3-{[(4-fluoro-3-methylbenzyl)amino]methyl}-1H-124-triazol-1-yl)-3-fluorobenzenesulfonamide]: 49%; for `COC[C@@H](NCc1nc(Cc2ccccc2)n(-c2ccc(S(N)(=O)=O)cc2F)n1)c1ccccc1` [Example T-47, 4-[5-benzyl-3-({[(1S)-2-methoxy-1-phenylethyl]amino}methyl)-1H-124-triazol-1-yl]-3-fluorobenzenesulfonamide]: 41%.
For the compound `NS(=O)(=O)c1ccc(-n2nc(CN3CCC[C@@H](O)C3)nc2Cc2ccccc2)c(F)c1` [Example T-39, 4-(5-benzyl-3-{[(3R)-3-hydroxypiperidin-1-yl]methyl}-1H-124-triazol-1-yl)-3-fluorobenzenesulfonamide], the inhibition at 0.0025 µM on human CA-II [1] was 65%.
`NS(=O)(=O)c1ccc(-n2nc(CNC3CCCCC3)nc2Cc2ccccc2)c(F)c1` [Example T-69, 4-{5-benzyl-3-[(cyclohexylamino)methyl]-1H-124-triazol-1-yl}-3-fluorobenzenesulfonamide] returned an inhibition at 0.0025 µM on human CA-II [1] of 68%.
On the same count and under the same terms, for `CCOc1ccccc1CNCc1nc(Cc2ccccc2)n(-c2ccc(S(N)(=O)=O)cc2F)n1` [Example T-63, 4-(5-benzyl-3-{[(2-ethoxybenzyl)amino]methyl}-1H-124-triazol-1-yl)-3-fluorobenzenesulfonamide] the value was 41%; for `Cc1ccn(CCNCc2nc(Cc3ccccc3)n(-c3ccc(S(N)(=O)=O)cc3F)n2)n1` [Example T-68, 4-[5-benzyl-3-({[2-(3-methyl-1H-pyrazol-1-yl)ethyl]amino}methyl)-1H-124-triazol-1-yl]-3-fluorobenzenesulfonamide], 55%.
